Data taken from PubChem BioAssay (NCI).
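In this assay, cells in 96-well plates receive the compound at five concentrations for 48 hours. Endpoints are linearly interpolated between the surrounding concentrations. The concentration for full growth arrest is given as TGI.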

How the values were obtained:
Test in all cases: inhibition of tumour cell growth, NCI panel, 48 h
786-0 renal = test system: 786-0 renal
A498 renal = test system: A498 renal
A549 NSCLC = test system: A549 NSCLC
ACHN renal = test system: ACHN renal
BT-549 breast = test system: BT-549 breast
CAKI-1 renal = test system: CAKI-1 renal
CCRF-CEM leukemia = test system: CCRF-CEM leukemia
COLO 205 colon = test system: COLO 205 colon
DU-145 prostate = test system: DU-145 prostate
EKVX NSCLC = test system: EKVX NSCLC
HCC-2998 colon = test system: HCC-2998 colon
HCT-116 colon = test system: HCT-116 colon
HCT-15 colon = test system: HCT-15 colon
HL-60(TB) leukemia = test system: HL-60(TB) leukemia
HOP-92 NSCLC = test system: HOP-92 NSCLC
HS 578T breast = test system: HS 578T breast
IGROV1 ovarian = test system: IGROV1 ovarian
KM12 colon = test system: KM12 colon
LOX IMVI melanoma = test system: LOX IMVI melanoma
M14 melanoma = test system: M14 melanoma
MALME-3M melanoma = test system: MALME-3M melanoma
MCF7 breast = test system: MCF7 breast
MDA-MB-231 breast = test system: MDA-MB-231 breast
MDA-MB-435 = test system: MDA-MB-435
MDA-N = test system: MDA-N
MOLT-4 leukemia = test system: MOLT-4 leukemia
NCI-H23 lung = test system: NCI-H23 lung
NCI-H460 lung = test system: NCI-H460 lung
NCI-H522 lung = test system: NCI-H522 lung
NCI/ADR-RES ovarian = test system: NCI/ADR-RES ovarian
OVCAR-3 ovarian = test system: OVCAR-3 ovarian
OVCAR-4 ovarian = test system: OVCAR-4 ovarian
OVCAR-5 ovarian = test system: OVCAR-5 ovarian
OVCAR-8 ovarian = test system: OVCAR-8 ovarian
PC-3 prostate = test system: PC-3 prostate
RPMI-8226 leukemia = test system: RPMI-8226 leukemia
SF-268 CNS = test system: SF-268 CNS
SF-295 CNS = test system: SF-295 CNS
SF-539 CNS = test system: SF-539 CNS
SK-MEL-2 melanoma = test system: SK-MEL-2 melanoma
SK-MEL-28 melanoma = test system: SK-MEL-28 melanoma
SK-MEL-5 melanoma = test system: SK-MEL-5 melanoma
SK-OV-3 ovarian = test system: SK-OV-3 ovarian
SN12C renal = test system: SN12C renal
SNB-19 CNS = test system: SNB-19 CNS
SNB-75 CNS = test system: SNB-75 CNS
SW-620 colon = test system: SW-620 colon
T-47D breast = test system: T-47D breast
TK-10 renal = test system: TK-10 renal
U251 CNS = test system: U251 CNS
UACC-257 melanoma = test system: UACC-257 melanoma
UACC-62 melanoma = test system: UACC-62 melanoma
UO-31 renal = test system: UO-31 renal
HOP-62 NSCLC = test system: HOP-62 NSCLC
HT29 colon = test system: HT29 colon
K-562 leukemia = test system: K-562 leukemia
NCI-H226 lung = test system: NCI-H226 lung
RXF 393 renal = test system: RXF 393 renal
SR leukemia = test system: SR leukemia

CC1=CCC(=O)[C@]2(C)C(CC(=O)O)[C@]3(C)C4=C(C)C(c5ccoc5)C[C@@H]4O[C@@H]3[C@H](O)[C@@H]12 (stereo not given in full)
TGI (786-0 renal): > 100 µM | TGI (A498 renal): > 100 µM | TGI (A549 NSCLC): > 100 µM | TGI (ACHN renal): > 100 µM | TGI (BT-549 breast): > 100 µM | TGI (CAKI-1 renal): > 100 µM | TGI (CCRF-CEM leukemia): > 100 µM | TGI (COLO 205 colon): > 100 µM | TGI (DU-145 prostate): > 100 µM | TGI (EKVX NSCLC): > 100 µM | TGI (HCC-2998 colon): > 100 µM | TGI (HCT-116 colon): > 100 µM | TGI (HCT-15 colon): > 100 µM | TGI (HL-60(TB) leukemia): > 100 µM | TGI (HOP-92 NSCLC): > 100 µM | TGI (HS 578T breast): > 100 µM | TGI (IGROV1 ovarian): > 100 µM | TGI (KM12 colon): > 100 µM | TGI (LOX IMVI melanoma): > 100 µM | TGI (M14 melanoma): > 100 µM | TGI (MALME-3M melanoma): > 100 µM | TGI (MCF7 breast): > 100 µM | TGI (MDA-MB-231 breast): > 100 µM | TGI (MDA-MB-435): > 100 µM | TGI (MDA-N): > 100 µM | TGI (MOLT-4 leukemia): > 100 µM | TGI (NCI-H23 lung): > 100 µM | TGI (NCI-H460 lung): > 100 µM | TGI (NCI-H522 lung): > 100 µM | TGI (NCI/ADR-RES ovarian): > 100 µM | TGI (OVCAR-3 ovarian): > 100 µM | TGI (OVCAR-4 ovarian): > 100 µM | TGI (OVCAR-5 ovarian): > 100 µM | TGI (OVCAR-8 ovarian): > 100 µM | TGI (PC-3 prostate): > 100 µM | TGI (RPMI-8226 leukemia): > 100 µM | TGI (SF-268 CNS): > 100 µM | TGI (SF-295 CNS): > 100 µM | TGI (SF-539 CNS): > 100 µM | TGI (SK-MEL-2 melanoma): > 100 µM | TGI (SK-MEL-28 melanoma): > 100 µM | TGI (SK-MEL-5 melanoma): > 100 µM | TGI (SK-OV-3 ovarian): > 100 µM | TGI (SN12C renal): > 100 µM | TGI (SNB-19 CNS): > 100 µM | TGI (SNB-75 CNS): > 100 µM | TGI (SW-620 colon): > 100 µM | TGI (T-47D breast): > 100 µM | TGI (TK-10 renal): > 100 µM | TGI (U251 CNS): > 100 µM | TGI (UACC-257 melanoma): > 100 µM | TGI (UACC-62 melanoma): > 100 µM | TGI (UO-31 renal): > 100 µM

COc1cc2c3c4[n+](cc2c(OC)c1OC)CCC4CCC3 (stereo not given)
TGI (786-0 renal): > 100 µM | TGI (A498 renal): > 100 µM | TGI (A549 NSCLC): > 100 µM | TGI (ACHN renal): > 100 µM | TGI (BT-549 breast): > 100 µM | TGI (CAKI-1 renal): > 100 µM | TGI (CCRF-CEM leukemia): > 100 µM | TGI (COLO 205 colon): > 84.7 µM | TGI (DU-145 prostate): > 100 µM | TGI (EKVX NSCLC): > 100 µM | TGI (HCC-2998 colon): > 100 µM | TGI (HCT-116 colon): > 100 µM | TGI (HCT-15 colon): > 100 µM | TGI (HOP-62 NSCLC): > 100 µM | TGI (HOP-92 NSCLC): > 100 µM | TGI (HS 578T breast): > 100 µM | TGI (HT29 colon): > 100 µM | TGI (IGROV1 ovarian): > 100 µM | TGI (K-562 leukemia): > 100 µM | TGI (KM12 colon): 99.5 µM | TGI (LOX IMVI melanoma): > 100 µM | TGI (M14 melanoma): > 100 µM | TGI (MALME-3M melanoma): > 65.8 µM | TGI (MCF7 breast): > 100 µM | TGI (MDA-MB-231 breast): > 100 µM | TGI (MDA-MB-435): > 100 µM | TGI (MDA-N): > 100 µM | TGI (MOLT-4 leukemia): > 100 µM | TGI (NCI-H226 lung): > 100 µM | TGI (NCI-H23 lung): > 100 µM | TGI (NCI-H460 lung): > 100 µM | TGI (NCI-H522 lung): > 100 µM | TGI (NCI/ADR-RES ovarian): > 100 µM | TGI (OVCAR-3 ovarian): > 100 µM | TGI (OVCAR-4 ovarian): > 100 µM | TGI (OVCAR-5 ovarian): > 100 µM | TGI (OVCAR-8 ovarian): > 100 µM | TGI (PC-3 prostate): > 100 µM | TGI (RPMI-8226 leukemia): > 100 µM | TGI (RXF 393 renal): > 100 µM | TGI (SF-268 CNS): > 100 µM | TGI (SF-295 CNS): > 100 µM | TGI (SF-539 CNS): > 100 µM | TGI (SK-MEL-2 melanoma): > 100 µM | TGI (SK-MEL-28 melanoma): > 100 µM | TGI (SK-MEL-5 melanoma): > 53.3 µM | TGI (SK-OV-3 ovarian): > 100 µM | TGI (SN12C renal): > 100 µM | TGI (SNB-19 CNS): > 100 µM | TGI (SR leukemia): > 100 µM | TGI (SW-620 colon): > 100 µM | TGI (T-47D breast): > 100 µM | TGI (TK-10 renal): > 100 µM | TGI (U251 CNS): > 100 µM | TGI (UACC-257 melanoma): > 100 µM | TGI (UACC-62 melanoma): > 100 µM | TGI (UO-31 renal): > 100 µM
